{
  "source": "patent US12599646B2",
  "about": "“Peptide-containing composition for use for treating neoplastic lesions” (CYTOVATION ASA, priority 2020, dated 2026)",
  "key": {"neoplastic cells": {"test_system": "neoplastic cells", "details": "as shown in WO 2011/092347; cited from earlier work"}, "[1]": {"test": "Short-term stability testing: percentage recovery of CyPep-1 from formulations", "details": "40° C., t=2 weeks"}, "[2]": {"test": "Saturated solubility of CyPep-1 in liquid excipients", "assay_type": "physicochemical", "details": "25° C.", "description": "A sample of the saturated supernatant was examined using light microscopy with a magnification of 200-1000× using a LEICA® (Germany) DME light microscope. The saturated supernatant was mounted on a microscope slide and examined immediately using both polarised and non-polarised light for the presence of CyPep-1 crystals. The dilution (Step (vii)) was performed immediately after the centrifugation step. • (vii) Since the solubility of CyPep-1 in these excipients was unknown, an appropriate dilution was made to achieve a concentration of CyPep-1 in sample diluent (deionised water) that was above the limit of quantification of the HPLC method, prior to analysis. For excipients which were saturated following the addition of ca. 20 mg of CyPep-1 the following dilution was performed: • (a) Into a 10 mL volumetric flask ca. 50 mg of the saturated solution was weighed. • (b) The volumetric flask from Step (a) was made to volume with sample diluent (deionised water) and vortex mixed for 30 s. • (c) An aliquot of the diluted sample from Step (b) was transferred to an HPLC vial and analysed by HPLC as described above. • (viii) For excipients which were saturated following the addition of ca. 40 mg of CyPep-1 the dilution was performed as detailed in Step (vii), however a 20 mL volumetric flask was used. Stability Testing—Method"}},
  "note": "Square brackets hold non-standard residues; d marks the D form. Peptide text beside a SMILES is read from it.",
  "data": [
    {"smiles": "CC[C@@H](C)[C@@H](NC(=O)[C@@H](C)NC(=O)[C@@H](CCCCN)NC(=O)[C@@H](C)NC(=O)[C@H](NC(=O)[C@@H](CCCNC(=N)N)NC(=O)[C@@H](CC(C)C)NC(=O)[C@H](NC(=O)[C@@H](CCCCN)NC(=O)CNC(=O)[C@@H](CCCNC(=N)N)NC(=O)[C@@H](CCCNC(=N)N)NC(=O)[C@@H](CCCNC(=N)N)NC(=O)[C@@H](CCC(N)=O)NC(=O)[C@@H](CCCNC(=N)N)NC(=O)[C@@H](CCCNC(=N)N)NC(=O)[C@@H](CCCCN)NC(=O)[C@@H](CCCCN)NC(=O)[C@@H](CCCNC(=N)N)NC(=O)CNC(=O)[C@H](N)Cc1ccc(O)cc1)[C@H](C)O)C(C)C)C(=O)N[C@H](Cc1ccc(O)cc1)C(=O)N[C@H](CCCCN)C(=O)N[C@H](CCCNC(=N)N)C(=O)N[C@H](Cc1ccc(O)cc1)C(=O)N[C@@H](C(=O)N[C@H](CCC(=O)O)C(=O)O)[C@H](C)CC", "note": "[CyPep-1] (H-[dY]G[dR][dK][dK][dR][dR][dQ][dR][dR][dR]G[dK][dT][dL][dR][dV][dA][dK][dA][dI][dY][dK][dR][dY][dI][dE]-OH; N-terminus and C-terminus assumed)", "values": [
      {"measurement": "cytotoxicity to neoplastic cells", "setting": "neoplastic cells", "result": "selectively cytotoxic"},
      {"measurement": "stability of CyPep-1 in cream and ointment formulations", "setting": "[1]", "result": "unstable"},
      {"measurement": "saturated solubility of CyPep-1", "setting": "[2]; benzyl alcohol", "result": "more than 10 % w/w"},
      {"measurement": "saturated solubility of CyPep-1", "setting": "[2]; deionised water (pH 4, 5, 6 or 7)", "result": "more than 10 % w/w"},
      {"measurement": "saturated solubility of CyPep-1", "setting": "[2]; ethanol", "result": "more than 10 % w/w"},
      {"measurement": "saturated solubility of CyPep-1", "setting": "[2]; phenoxyethanol", "result": "more than 10 % w/w"}
    ]}
  ]
}
